Data: the NIST ThermoML archive (doi:10.1021/je200093f)
Where “and” joins values, the source holds several entries; their conditions need not be identical. Identical values can stand only once. Numbers after ± are expanded uncertainties.

Key:
[1] = xn = mol fraction of the nth substance listed; details: 298.15 K, 101 kPa, Liquid, Vibrating tube method
[2] = excess molar enthalpy (molar enthalpy of mixing); xn = mol fraction of the nth substance listed; details: 298.15 K, 101 kPa, Liquid, Calvet calorimetry
[3] = 101.33 kPa, Liquid, Vibrating tube method

Cc1ccncc1 [4-methylpyridine] + O
Details | excess molar enthalpy, [2] | mass density, [1]
x1 = 0.000919 | -0.00217 kcal/mol and -0.00216 kcal/mol | 997.023 ± 0.21 kg/m3 and 997.024 ± 0.21 kg/m3
x1 = 0.001837 | -0.00432 kcal/mol and -0.00429 kcal/mol | 997.005 ± 0.21 kg/m3
x1 = 0.002753 | -0.0064 ± 0.000234 kcal/mol | 996.988 ± 0.21 kg/m3
x1 = 0.002754 | -0.0064 ± 0.000234 kcal/mol | 996.988 ± 0.21 kg/m3
x1 = 0.003667 | -0.00843 ± 0.000239 kcal/mol | 996.972 ± 0.21 kg/m3
x1 = 0.003668 | -0.00844 ± 0.000239 kcal/mol | 996.971 ± 0.21 kg/m3
x1 = 0.00458 | -0.0105 kcal/mol | 996.955 ± 0.21 kg/m3 and 996.956 ± 0.21 kg/m3
x1 = 0.005492 | -0.0124 kcal/mol | 996.939 ± 0.21 kg/m3

CN1CCOCC1 [N-methylmorpholine]
Details | mass density [kg/m3]
[3], 298.15 K | 914.15 ± 0.45

CN1CCOCC1 [N-methylmorpholine] + CO
Details | excess molar enthalpy, [2] | mass density, [1]
x1 = 0.001834 | – | 787.377 ± 0.61 kg/m3 and 787.359 ± 0.61 kg/m3
x1 = 0.003662 | -0.00519 ± 0.000229 kcal/mol | 788.239 ± 0.61 kg/m3
x1 = 0.003663 | -0.0052 ± 0.000229 kcal/mol | 788.267 ± 0.61 kg/m3
x1 = 0.005484 | -0.00777 kcal/mol and -0.00772 kcal/mol | 789.159 ± 0.61 kg/m3 and 789.119 ± 0.61 kg/m3
x1 = 0.007298 | -0.0103 ± 0.000263 kcal/mol | 790.004 ± 0.61 kg/m3
x1 = 0.007299 | -0.0103 ± 0.000263 kcal/mol | 790.044 ± 0.61 kg/m3
x1 = 0.009104 | -0.0128 ± 0.000287 kcal/mol | 790.862 ± 0.61 kg/m3
x1 = 0.009108 | -0.0128 ± 0.000287 kcal/mol | 790.908 ± 0.61 kg/m3
x1 = 0.0109 | -0.0152 ± 0.000311 kcal/mol | 791.711 ± 0.61 kg/m3
x1 = 0.01091 | -0.0152 ± 0.000311 kcal/mol | 791.753 ± 0.61 kg/m3

CN1CCOCC1 [N-methylmorpholine] + O
Details | excess molar enthalpy, [2] [kcal/mol] | mass density, [1] [kg/m3]
x1 = 0.000812 | -0.00565 ± 0.000229 | 997.058 ± 0.21
x1 = 0.000813 | -0.00565 ± 0.000229 | 997.058 ± 0.21
x1 = 0.001623 | -0.0113 ± 0.000263 | 997.074 ± 0.21
x1 = 0.001624 | -0.0113 ± 0.000263 | 997.074 ± 0.21
x1 = 0.002433 | -0.0169 ± 0.000311 | 997.095 ± 0.21
x1 = 0.002434 | -0.0168 ± 0.000311 | 997.094 ± 0.21
x1 = 0.003242 | -0.0224 | 997.121 ± 0.21
x1 = 0.004048 | -0.0279 ± 0.00043 | 997.151 ± 0.21
x1 = 0.00405 | -0.0279 ± 0.00043 | 997.153 ± 0.21
x1 = 0.004854 | -0.0335 ± 0.000478 | 997.187 ± 0.21
x1 = 0.004858 | -0.0334 ± 0.000478 | 997.188 ± 0.21

CN1CCCCC1 [N-methylpiperidine]
[3]
Details | mass density [kg/m3]
288.15 K | 821.53 ± 0.46
293.15 K | 817.22 ± 0.46
298.15 K | 812.62 ± 0.46
303.15 K | 808.16 ± 0.46
308.15 K | 803.61 ± 0.46

CN1CCCCC1 [N-methylpiperidine] + CO
Details | excess molar enthalpy, [2] | mass density, [1] [kg/m3]
x1 = 0.001664 | -0.00412 kcal/mol and -0.00411 kcal/mol | 786.815 ± 0.61
x1 = 0.003322 | -0.00819 ± 0.000263 kcal/mol | 787.153 ± 0.61
x1 = 0.003323 | -0.00814 ± 0.000263 kcal/mol | 787.15 ± 0.61
x1 = 0.004975 | -0.0122 ± 0.000287 kcal/mol | 787.488 ± 0.61
x1 = 0.004976 | -0.0122 ± 0.000287 kcal/mol | 787.486 ± 0.61
x1 = 0.006622 | -0.0162 ± 0.000311 kcal/mol | 787.816 ± 0.61
x1 = 0.006624 | -0.0161 ± 0.000311 kcal/mol | 787.816 ± 0.61
x1 = 0.008264 | -0.0201 ± 0.000359 kcal/mol | 788.141 ± 0.61
x1 = 0.008266 | -0.0201 ± 0.000359 kcal/mol | 788.139 ± 0.61
x1 = 0.0099 | -0.024 ± 0.000382 kcal/mol | 788.458 ± 0.61
x1 = 0.009904 | -0.0239 ± 0.000382 kcal/mol | 788.454 ± 0.61

CN1CCCCC1 [N-methylpiperidine] + O
Details | excess molar enthalpy, [2] [kcal/mol] | mass density, [1] [kg/m3]
x1 = 0.000735 | -0.00509 ± 0.000225 | 996.66 ± 0.21
x1 = 0.000736 | -0.00513 ± 0.000225 | 996.651 ± 0.21
x1 = 0.000737 | -0.00512 ± 0.000225 | 996.658 ± 0.21
x1 = 0.00147 | -0.0102 ± 0.000263 | 996.261 ± 0.21
x1 = 0.001471 | -0.0103 ± 0.000263 | 996.253 ± 0.21
x1 = 0.001473 | -0.0102 ± 0.000263 | 996.26 ± 0.21
x1 = 0.002202 | -0.0154 ± 0.000311 | 995.866 ± 0.21
x1 = 0.002206 | -0.0155 ± 0.000311 | 995.858 ± 0.21
x1 = 0.002208 | -0.0154 ± 0.000311 | 995.862 ± 0.21
x1 = 0.002934 | -0.0206 ± 0.000359 | 995.483 ± 0.21
x1 = 0.002939 | -0.0206 ± 0.000359 | 995.482 ± 0.21
x1 = 0.002942 | -0.0206 ± 0.000359 | 995.47 ± 0.21
x1 = 0.003666 | -0.0258 ± 0.000406 | 995.109 ± 0.21
x1 = 0.003671 | -0.0258 ± 0.000406 | 995.097 ± 0.21
x1 = 0.003675 | -0.0259 ± 0.000406 | 995.081 ± 0.21
x1 = 0.004398 | -0.0308 ± 0.000454 | 994.752 ± 0.21
x1 = 0.004404 | -0.0309 ± 0.000454 | 994.733 ± 0.21
x1 = 0.004409 | -0.031 ± 0.000454 | 994.716 ± 0.21
